Measured values published in paper PMC4311985, “Molecular Surveillance of Antiviral Drug Resistance of Influenza A/H3N2 Virus in Singapore, 2009-2013” (PLoS ONE, 2015).

Assays:
[1] = tested on: NA with combination of G248R and K249E mutations; conditions: 'low levels' of resistance; cited from earlier work
[2] = target: influenza A/H3N2 NA, wild-type (baseline) at loci 93, 155, 251 (Influenza A virus (H3N2), UniProt V9SU56); format: biochemical; conditions: wild-type (baseline) at each locus; 10 samples tested; mean; read-out: mean drug concentration required to inhibit 50% NA activity

Row | SMILES | IC50 increase [1] | IC50 [2]
1 | CC(=O)N[C@H]1[C@H]([C@H](O)[C@H](O)CO)OC(C(=O)O)=C[C@@H]1N=C(N)N [Zanamivir, zanamivir] | < 10 fold | 
2 | CCOC(=O)C1=C[C@@H](OC(CC)CC)[C@H](NC(C)=O)[C@@H](N)C1 [Oseltamivir, oseltamivir] | < 10 fold | 
3 | CCC(CC)[C@H](NC(C)=O)[C@@H]1[C@H](O)[C@@H](C(=O)O)C[C@H]1N=C(N)N [Peramivir, peramivir] |  | 0.2 ± 0.1 nM
